# Measurements: US20220380319A1 (Bial - R&D Investments, S.A., priority 2019, published 2022)
# pIC50: −log10 of the molar value.
# Tests used:
# [1] = Compound solubility in water
# acid ceramidase = target: T1, acid ceramidase (Homo sapiens, UniProt Q13510); assay: Acid ceramidase inhibition, biochemical fluorescent assay with cell lysates overexpressing acid ceramidase, substrate Rbm14-12; settings: substrate Rbm14-12 6.3 μM
# T1 construct: Cell lysates overexpressing acid ceramidase were used as the enzyme source; expressed in transfected cells
# T1 sequence (Q13510 22-395): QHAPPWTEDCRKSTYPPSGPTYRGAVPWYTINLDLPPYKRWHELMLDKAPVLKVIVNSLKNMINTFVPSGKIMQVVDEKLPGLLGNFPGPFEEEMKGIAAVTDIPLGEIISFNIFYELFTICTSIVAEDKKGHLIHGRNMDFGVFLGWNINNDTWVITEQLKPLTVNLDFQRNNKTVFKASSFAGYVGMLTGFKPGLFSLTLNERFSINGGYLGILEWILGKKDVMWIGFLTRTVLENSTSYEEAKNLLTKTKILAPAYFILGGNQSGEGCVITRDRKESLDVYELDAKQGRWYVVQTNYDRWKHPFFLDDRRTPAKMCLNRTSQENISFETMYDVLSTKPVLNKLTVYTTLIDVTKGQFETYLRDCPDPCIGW
# Procedure, shortened: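 Lysate of cells overexpressing acid ceramidase (10 μg protein) preincubated with compound dose series 1 hr at RT in 25 mM NaAC, 100 mM NaCl, pH 4.5, then reacted 1 hr with 6.3 μM Rbm14-12. Stopped with NaIO4/glycine buffer pH 10.6, fluorescence ex360/em446; IC50 by four-parameter fit.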
# [2] = pH 4.5, 1 hr preincubation at RT
solubility [1] [µg/mL],pIC50 (acid ceramidase; [2]),pIC50 (acid ceramidase; pH 4.5),Compound
27,6.00 to 6.70,,"CC(C)CCNC(=O)n1cnc2c(N3CCN(C)C4(CC4)C3)cccc21 [Example 157, N-iso-Pentyl-4-(4-methyl-4,7-diazaspiro[2.5]-octan-7-yl)-1H-benzo[d]imidazole-1-carboxamide]"
17,6.00 to 6.70,,"CC(C)CCNC(=O)n1cnc2c(N3CCN4CCCC4C3)cccc21 (stereo not shown) [Example 158, 4-(Hexahydropyrrolo[1,2-a]pyrazin-2(1H)-yl)-N-iso-pentyl-1H-benzo[d]imidazole-1-carboxamide]"
33,6.00 to 6.70,,"CC(C)CCNC(=O)n1cnc2c(N3CC4CC3CN4C)cccc21 (stereo not shown) [Example 159, N-iso-Pentyl-4-(5-methyl-2,5-diazabicyclo[2.2.1]heptan-2-yl)-1H-benzo[d]imidazole-1-carboxamide]"
18,,< 6.00,"CC(C)CCNC(=O)n1cnc2c(N3CCN(C)CC3=O)cccc21 [Example 162, N-iso-Pentyl-4-(4-methyl-2-oxopiperazin-1-yl)-1H-benzo[d]imidazole-1-carboxamide]"
14,,6.00 to 6.70,"CC(C)CCNC(=O)n1cnc2c(N3CCN(C)C(=O)C3)cccc21 [Example 163, N-iso-Pentyl-4-(4-methyl-3-oxopiperazin-1-yl)-1H-benzo[d]imidazole-1-carboxamide]"
1,,6.00 to 6.70,"CC(C)CCNC(=O)n1cnc2c(N3CC(C)(C#N)C3)cccc21 [Example 165, 4-(3-Cyano-3-methylazetidin-1-yl)-N-isopentyl-1H-benzo[d]imidazole-1-carboxamide]"
12,,6.00 to 6.70,"CC(C)CCNC(=O)n1cnc2c(N3C[C@H]4C[C@@H]3CO4)cccc21 [Example 166, 4-((1R,4R)-2-Oxa-5-azabicyclo[2.2.1]heptan-5-yl)-N-iso-pentyl-1H-benzo[d]imidazole-1-carboxamide]"
4,,6.00 to 6.70,"CC(C)CCNC(=O)n1cnc2c(N3C[C@@H](C)O[C@@H](C)C3)cccc21 [Example 167, 4-((2S,6R)-2,6-Dimethylmorpholino)-N-iso-pentyl-1H-benzo[d]imidazole-1-carboxamide]"
23,,6.00 to 6.70,"CC(C)CCNC(=O)n1cnc2c(N3CCOC[C@@H]3C)cccc21 [Example 169, (S)—N-iso-Pentyl-4-(3-methylmorpholino)-1H-benzo[d]imidazole-1-carboxamide]"
14,,6.00 to 6.70,"CC(C)CCNC(=O)n1cnc2c(N3CCOC(C)(C)C3)cccc21 [Example 170, 4-(2,2-Dimethylmorpholino)-N-isopentyl-1H-benzo[d]imidazole-1-carboxamide]"
15,,6.00 to 6.70,"CC(C)CCNC(=O)n1cnc2c(N3CCO[C@@H](C)C3)cccc21 [Example 171, (S)—N-iso-Pentyl-4-(2-methylmorpholino)-1H-benzo[d]imidazole-1-carboxamide]"
4,,6.00 to 6.70,"CC(C)CCNC(=O)n1cnc2c(N3CCO[C@@H](C(C)C)C3)cccc21 [Example 172a, (S)—N-iso-Pentyl-4-(2-iso-propylmorpholino)-1H-benzo[d]imidazole-1-carboxamide]"
4,,6.00 to 6.70,"CC(C)CCNC(=O)n1cnc2c(N3CCO[C@H](C(C)C)C3)cccc21 [Example 172b, (R)—N-iso-pentyl-4-(2-iso-propylmorpholino)-1H-benzo[d]imidazole-1-carboxamide]"

# Second part, the compound before the results:
Compound,solubility [1] [µg/mL],pIC50 (acid ceramidase; [2]),pIC50 (acid ceramidase; pH 4.5)
"O=C(NCCCCc1ccccc1)n1cnc2c(N3CCOCC3)cccc21 [Example 137, 4-Morpholino-N-(4-phenylbutyl)-1H-benzo[d]imidazole-1-carboxamide]",0.6,> 6.70,
"COc1nc2c(C#N)cccc2n1C(=O)NCCCCc1ccccc1 [Example 138, 4-Cyano-2-methoxy-N-(4-phenylbutyl)-1H-benzo[d]imidazole-1-carboxamide]",0.3,> 6.70,
"COc1nc2c(C#N)cccc2n1C(=O)NCC1CCC(F)(F)CC1 [Example 139, 4-Cyano-N-((4,4-difluorocyclohexyl)methyl)-2-methoxy-1H-benzo[d]imidazole-1-carboxamide]",9,> 6.70,
"COc1nc2c(C#N)cccc2n1C(=O)NCC#CC(C)C [Example 140, 4-Cyano-2-methoxy-N-(4-methylpent-2-ynyl)-1H-benzo[d]imidazole-1-carboxamide]",10,> 6.70,
"O=C(NCCCC1CC1)n1cnc2c(N3CCOCC3)cccc21 [Example 141, N-(3-Cyclopropylpropyl)-4-morpholino-1H-benzo[d]imidazole-1-carboxamide]",15,> 6.70,
"O=C(NCCCc1ccccc1)n1cnc2c(N3CCOCC3)cccc21 [Example 142, 4-Morpholino-N-(3-phenylpropyl)-1H-benzo[d]imidazole-1-carboxamide]",1.4,> 6.70,
"CC(C)CCNC(=O)n1cnc2c(N3CCC(F)(F)CC3)cccc21 [Example 143, 4-(4,4-Difluoropiperidin-1-yl)-N-isopentyl-1H-benzo[d]imidazole-1-carboxamide]",2,6.00 to 6.70,
"COc1nc2c(N3CCC(F)(F)CC3)cccc2n1C(=O)NCCC(C)C [Example 144, 4-(4,4-Difluoropiperidin-1-yl)-N-isopentyl-2-methoxy-1H-benzo[d]imidazole-1-carboxamide]",1.2,< 6.00,
"COc1nc2c(N3CCN(C)CC3)cccc2n1C(=O)NCCC(C)C [Example 145, N-iso-Pentyl-2-methoxy-4-(4-methylpiperazin-1-yl)-1H-benzo[d]imidazole-1-carboxamide]",46,< 6.00,
"COc1nc2c(N3CCOCC3)cccc2n1C(=O)NCCC(C)C [Example 146, N-iso-Pentyl-2-methoxy-4-morpholino-1H-benzo[d]imidazole-1-carboxamide]",17,< 6.00,
"CC(C)CCNC(=O)n1cnc2c(N3CCN(C4CC4)CC3)cccc21 [Example 147, 4-(4-Cyclopropylpiperazin-1-yl)-N-iso-pentyl-1H-benzo[d]imidazole-1-carboxamide]",14,6.00 to 6.70,
"O=C(NC1CCCCC1)n1cnc2c(N3CCN(C4CC4)CC3)cccc21 [Example 148, N-Cyclohexyl-4-(4-cyclopropylpiperazin-1-yl)-1H-benzo[d]imidazole-1-carboxamide]",3,< 6.00,
"O=C(NC1CCCCC1)n1cnc2c(N3CCOCC3)cccc21 [Example 149, N-Cyclohexyl-4-morpholino-1H-benzo[d]imidazole-1-carboxamide]",15,< 6.00,
"O=C(NCCCc1ccccc1)n1cnc2c(N3CCN(C4CC4)CC3)cccc21 [Example 150, 4-(4-Cyclopropylpiperazin-1-yl)-N-(3-phenylpropyl)-1H-benzo[d]imidazole-1-carboxamide]",1.5,> 6.70,
"CC(C)CCNC(=O)n1cnc2c(N3CCCCC3)cccc21 [Example 151, N-iso-Pentyl-4-(piperidin-1-yl)-1H-benzo[d]imidazole-1-carboxamide]",2,6.00 to 6.70,
"CC(C)CCNC(=O)n1cnc2c(N3CCN(CC4CC4)CC3)cccc21 [Example 152, 4-(4-(Cyclopropylmethyl)piperazin-1-yl)-N-iso-pentyl-1H-benzo[d]imidazole-1-carboxamide]",20,6.00 to 6.70,
"CC(C)CCNC(=O)n1cnc2c(N3CCN(CC(F)(F)F)CC3)cccc21 [Example 153, N-iso-Pentyl-4-(4-(2,2,2-trifluoroethyl)piperazin-1-yl)-1H-benzo[d]imidazole-1-carboxamide]",10,6.00 to 6.70,
"CC(C)CCNC(=O)n1cnc2c(N3CCN(C4COC4)CC3)cccc21 [Example 154, N-iso-Pentyl-4-(4-(oxetan-3-yl)piperazin-1-yl)-1H-benzo[d]imidazole-1-carboxamide]",30,6.00 to 6.70,
"CC(C)CCNC(=O)n1cnc2c(N3CCN(C4CCOCC4)CC3)cccc21 [Example 155, N-iso-Pentyl-4-(4-(tetrahydro-2H-pyran-4-yl)-piperazin-1-yl)-1H-benzo[d]imidazole-1-carboxamide]",30,6.00 to 6.70,
"CC(C)CCNC(=O)n1cnc2c(N3CCN(c4cccc5cncn45)CC3)cccc21 [Example 156, 4-(4-(Imidazo[1,5-a]pyridin-5-yl)piperazin-1-yl)-N-iso-pentyl-1H-benzo[d]imidazole-1-carboxamide]",0.2,6.00 to 6.70,
"CC(C)CCNC(=O)n1cnc2c(N3CC4CC(C3)N4C)cccc21 [Example 160, N-iso-Pentyl-4-(6-methyl-3,6-diazabicyclo[3.1.1]-heptan-3-yl)-1H-benzo[d]imidazole-1-carboxamide]",35,6.00 to 6.70,
"CC(C)CCNC(=O)n1cnc2c(N3CC4CCC(C3)N4C)cccc21 [Example 161, N-iso-Pentyl-4-(8-methyl-3,8-diazabicyclo[3.2.1]-octan-3-yl)-1H-benzo[d]imidazole-1-carboxamide]",35,,6.00 to 6.70
